The values below come from patent US11673867B2, “Sulfonamide derivative or pharmaceutically acceptable acid-addition salt” (University of Tsukuba, priority 2017, dated 2023).

Some results are limits rather than exact numbers.

One experiment has as its system C57BL/6J lineage wild-type (WT) mice. The experiment is described as follows: Awakening effect of oral administration (light period) to wild-type mice (EEG/EMG). Format: in vivo, mouse. Particulars: ZT6 light period, 0.625 mg/kg-25 mg/kg, versus control MC, 60, 120, 180 min after administration, n=3. From the text:
Awakening Effect of Oral Administration (Light Period) of Test Compound to Wild-Type Mice
As the test compound, the compound of Example 1 was used.
C57BL/6J lineage wild-type (WT) mice, and orexin receptor-deficient mice (DKO mice) (both males) as a negative control were used as experimental animals. The mice (9 to 35 weeks of age) underwent surgery for embedding electroencephalogram electrodes into the skull (Bregma: X=1.5; Y=0.6, Lambda: X=1.5; Y=0) and inserting electromyogram electrodes into the trapezius muscle under isoflurane anesthesia. Two weeks postoperation were the recovery period and acclimation period to the electroencephalogram/electromyogram measurement cage, after which administration and measurement were performed. To prepare a suspension for oral administration of the test compound, the compound was grinded in an agate mortar for 20 min and sufficiently stirred while adding a small amount of 0.5% methylcellulose aqueous solution (MC). The suspension (100 μL) was dispensed into an oral gavage needle. […]
To the WT mice were orally administered 100 μL each of the control MC or the test compound during the light period (ZT6) in the sleep period. […] DKO mice were also evaluated by a similar method, in which MC or a test compound (5 mg/kg) was orally administered, and electroencephalogram and electromyogram were measured for 3 hr after the administration. […]
`CCCc1ccc(N2CCCN(c3cccc(NS(=O)(=O)c4cc(-c5cccc(C(=O)N(C)C)c5)ccc4OC)c3)C2=O)cc1` [Example 1, 4′-methoxy-N,N-dimethyl-3′-(N-(3-(2-oxo-3-(4-propylphenyl)tetrahydropyrimidin-1(2H)-yl)phenyl)sulfamoyl)-[1,1′-biphenyl]-3-carboxamide]: the “awakening time (awakening prolonging effect)” value was “significantly prolonged the awakening time and increased the awakening time in a dose-dependent manner”.

The next experiment concerns the target T1, human OX2R (Homo sapiens, UniProt O43614).
T1 construct: expressed in transfected cells; host or cells: CHO (Chinese hamster ovary) cells, line CHOOX2R, also expressing NFAT-luciferase
T1 sequence (O43614 1-444): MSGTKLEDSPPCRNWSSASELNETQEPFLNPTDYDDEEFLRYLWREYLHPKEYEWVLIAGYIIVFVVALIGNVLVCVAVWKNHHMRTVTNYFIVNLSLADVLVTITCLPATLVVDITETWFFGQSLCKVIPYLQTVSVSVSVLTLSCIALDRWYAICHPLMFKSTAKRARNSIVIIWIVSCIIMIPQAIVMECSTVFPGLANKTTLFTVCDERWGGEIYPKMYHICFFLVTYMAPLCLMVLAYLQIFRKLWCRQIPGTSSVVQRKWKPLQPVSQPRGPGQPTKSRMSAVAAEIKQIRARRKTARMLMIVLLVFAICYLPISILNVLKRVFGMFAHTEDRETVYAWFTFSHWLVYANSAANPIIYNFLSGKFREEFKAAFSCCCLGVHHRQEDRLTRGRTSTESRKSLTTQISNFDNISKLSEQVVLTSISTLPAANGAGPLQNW
The experiment is described as follows: Evaluation of agonist activity against OX2R (intracellular calcium, Fura-2AM, FDSS7000, CHOOX2R cells). To be noted: CHO cells expressing human OX2R; calcium fluorescence ratio 340/380 nm; 10^-11.5 M to 10^-5 M. Format: cell-based. As to the method:
Evaluation of Agonist Activity Against OX2R
NAFT-luciferase gene and human OX2R gene were constitutively expressed in CHO cell, which is a cell line derived from Chinese hamster ovary to establish a cell line (CHOOX2R). The cells were seeded in a 96-well Multiplate at 10,000 cells/well and cultured in a 5% FBS (Thermo Scientific)-added DMEM medium (Sigma-Aldrich) for 48 hr. The medium was removed, an assay buffer (20 mM HEPES (Sigma-Aldrich), Hanks' balanced salt solution (Gibco), 0.1% BSA (Sigma-Aldrich), 2.5 mM probenecid acid (Wako Pure Chemical Industries, Ltd.)) (100 μL) containing 4 μM Fura-2AM (Cayman Chemical) was added, and the cells were incubated for 60 min. The buffer containing Fura-2AM was removed, and an assay buffer (75 μL) was added. An assay buffer (25 μL) containing a test compound was added thereto to start the reaction. Changes in the intracellular calcium ion concentration due to the reaction were measured by measuring the fluorescence intensity ratio by dual wavelength excitation at 340 and 380 nm, by using FDSS7000 (Hamamatsu Photonics K.K.). The test compound was dissolved in DMSO to 10 mM, and diluted with the assay buffer to a final concentration of 10^−11.5 M to 10^−5 M (final concentration of DMSO 1%).
For the compound `CCCc1ccc(N2CCCN(c3cccc(NS(=O)(=O)c4cc(-c5cccc(C(=O)N(C)C)c5)ccc4OC)c3)C2=O)cc1` [Example 1, 4′-methoxy-N,N-dimethyl-3′-(N-(3-(2-oxo-3-(4-propylphenyl)tetrahydropyrimidin-1(2H)-yl)phenyl)sulfamoyl)-[1,1′-biphenyl]-3-carboxamide], the EC50 came out at 0.00061 µM.

Consider `COc1ccc(-c2cccc(C(=O)N(C)C)c2)cc1S(=O)(=O)Nc1cccc(N2CCCN(c3ccc(C)cc3)C2=O)c1` [Example 2], for which the EC50 turned out to be 0.00512 µM.

Consider `CCc1ccc(N2CCCN(c3cccc(NS(=O)(=O)c4cc(-c5cccc(C(=O)N(C)C)c5)ccc4OC)c3)C2=O)cc1` [Example 3], for which the EC50 is 0.0031 µM.

As for `COc1ccc(-c2cccc(C(=O)N(C)C)c2)cc1S(=O)(=O)Nc1cccc(N2CCCN(c3ccc(C(C)C)cc3)C2=O)c1` [Example 4], the EC50 amounted to 0.0033 µM.

On to `COc1ccc(N2CCCN(c3cccc(NS(=O)(=O)c4cc(-c5cccc(C(=O)N(C)C)c5)ccc4OC)c3)C2=O)cc1` [Example 5], for which the EC50 is 0.00241 µM.

On to `CCOc1ccc(N2CCCN(c3cccc(NS(=O)(=O)c4cc(-c5cccc(C(=O)N(C)C)c5)ccc4OC)c3)C2=O)cc1` [Example 6, 3′-(N-(3-(3-(4-ethoxyphenyl)-2-oxotetrahydropyrimidin-1(2H)-yl)phenyl)sulfamoyl)-4′-methoxy-N,N-dimethyl-[1,1′-biphenyl]-3-carboxamide], for which the EC50 amounted to 0.00287 µM.

For the compound `COc1ccc(-c2cccc(C(=O)N(C)C)c2)cc1S(=O)(=O)Nc1cccc(N2CCCN(c3ccc(OCC(F)(F)F)cc3)C2=O)c1` [Example 9], the EC50 turned out to be 0.02 µM.

As to `COc1ccc(-c2cccc(C(=O)N(C)C)c2)cc1S(=O)(=O)Nc1cccc(N2CCCN(c3ccc(OCC(C)C)cc3)C2=O)c1` [Example 10], the EC50 is 0.0659 µM.

`CCCCCCCCOc1ccc(N2CCCN(c3cccc(NS(=O)(=O)c4cc(-c5cccc(C(=O)N(C)C)c5)ccc4OC)c3)C2=O)cc1` [Example 11]: the EC50 is > 0.5 µM.

As to `COc1ccc(-c2cccc(C(=O)N(C)C)c2)cc1S(=O)(=O)Nc1cccc(N2CCCN(c3ccc(Oc4ccccc4)cc3)C2=O)c1` [Example 12, 4′-methoxy-N,N-dimethyl-3′-(N-(3-(2-oxo-3-(4-phenoxyphenyl)tetrahydropyrimidin-1(2H)-yl)phenyl)sulfamoyl)-[1,1′-biphenyl]-3-carboxamide], the EC50 came out at 0.217 µM.

`CCCCc1ccc(N2CCCN(c3cccc(NS(=O)(=O)c4cc(-c5cccc(C(=O)N(C)C)c5)ccc4OC)c3)C2=O)cc1` [Example 13, 3′-(N-(3-(3-(4-butylphenyl)-2-oxotetrahydropyrimidin-1(2H)-yl)phenyl)sulfamoyl)-4′-methoxy-N,N-dimethyl-[1,1′-biphenyl]-3-carboxamide]: the EC50 is 0.00752 µM.

Consider `COc1ccc(-c2cccc(C(=O)N(C)C)c2)cc1S(=O)(=O)Nc1cccc(N2CCCN(c3ccc(-c4ccccc4)cc3)C2=O)c1` [Example 14], for which the EC50 stood at 0.14 µM.

As to `CCCCCCCCc1ccc(N2CCCN(c3cccc(NS(=O)(=O)c4cc(-c5cccc(C(=O)N(C)C)c5)ccc4OC)c3)C2=O)cc1` [Example 15], the EC50 is > 0.5 µM.

`[2H]C([2H])([2H])Oc1ccc(-c2cccc(C(=O)N(C)C)c2)cc1S(=O)(=O)Nc1cccc(N2CCCN(c3ccc(CCC)cc3)C2=O)c1` [Example 16, 4′-(methoxy-d3)-N,N-dimethyl-3′-(N-(3-(2-oxo-3-(4-propylphenyl)tetrahydropyrimidin-1(2H)-yl)phenyl)sulfamoyl)-[1,1′-biphenyl]-3-carboxamide]: the EC50 is 0.000843 µM.

`CCCc1ccc(N2CCCN(c3cccc(NS(=O)(=O)c4cc(-c5cccc(C(=O)N(C)C)c5)ccc4OC(F)(F)F)c3)C2=O)cc1` [Example 17, N,N-dimethyl-3′-(N-(3-(2-oxo-3-(4-propylphenyl)tetrahydropyrimidin-1(2H)-yl)phenyl)sulfamoyl)-4′-(trifluoromethoxy)-[1,1′-biphenyl]-3-carboxamide]: the EC50 is 0.395 µM.

For the compound `CCCc1ccc(N2CCCN(c3cccc(NS(=O)(=O)c4cc(C5CNC(=O)C5)ccc4OC)c3)C2=O)cc1` (stereo not shown) [Example 18, 2-methoxy-N-(3-(2-oxo-3-(4-propylphenyl)tetrahydropyrimidin-1(2H)-yl)phenyl)-5-(5-oxopyrrolidin-3-yl)benzenesulfonamide], the EC50 amounted to 0.00631 µM.

Consider `CCCc1ccc(N2CCCN(c3cccc(NS(=O)(=O)c4cc(C(C)C)ccc4OC)c3)C2=O)cc1` [Example 19, 5-isopropyl-2-methoxy-N-(3-(2-oxo-3-(4-propylphenyl)tetrahydropyrimidin-1(2H)-yl)phenyl)benzenesulfonamide], for which the EC50 is 0.0196 µM.

For `COc1ccc(C(C)C)cc1S(=O)(=O)Nc1cccc(N2CCCN(c3ccc(C(C)C)cc3)C2=O)c1` [Example 20], the EC50 turned out to be 0.0414 µM.

Consider `COc1ccc(N2CCCN(c3cccc(NS(=O)(=O)c4cc(C(C)C)ccc4OC)c3)C2=O)cc1` [Example 21], for which the EC50 was 0.0817 µM.

For `CCOc1ccc(N2CCCN(c3cccc(NS(=O)(=O)c4cc(C(C)C)ccc4OC)c3)C2=O)cc1` [Example 22], the EC50 stood at 0.0381 µM.

The test system of the next experiment is orexin receptor-deficient mice (DKO mice). In words: Awakening effect of oral administration to orexin receptor-deficient mice (DKO mice), negative control (EEG/EMG). Format: in vivo, mouse. Particulars: oral 5 mg/kg, versus control MC, measured 3 hr after administration, n=3. From the text:
C57BL/6J lineage wild-type (WT) mice, and orexin receptor-deficient mice (DKO mice) (both males) as a negative control were used as experimental animals. The mice (9 to 35 weeks of age) underwent surgery for embedding electroencephalogram electrodes into the skull (Bregma: X=1.5; Y=0.6, Lambda: X=1.5; Y=0) and inserting electromyogram electrodes into the trapezius muscle under isoflurane anesthesia. Two weeks postoperation were the recovery period and acclimation period to the electroencephalogram/electromyogram measurement cage, after which administration and measurement were performed. To prepare a suspension for oral administration of the test compound, the compound was grinded in an agate mortar for 20 min and sufficiently stirred while adding a small amount of 0.5% methylcellulose aqueous solution (MC). The suspension (100 μL) was dispensed into an oral gavage needle. The suspensions were prepared 30 min before administration.
To the WT mice were orally administered 100 μL each of the control MC or the test compound during the light period (ZT6) in the sleep period. The test compound was administered at concentrations of 0.625 mg/kg-25 mg/kg according to the stage. DKO mice were also evaluated by a similar method, in which MC or a test compound (5 mg/kg) was orally administered, and electroencephalogram and electromyogram were measured for 3 hr after the administration. […]
As for `CCCc1ccc(N2CCCN(c3cccc(NS(=O)(=O)c4cc(-c5cccc(C(=O)N(C)C)c5)ccc4OC)c3)C2=O)cc1` [Example 1, 4′-methoxy-N,N-dimethyl-3′-(N-(3-(2-oxo-3-(4-propylphenyl)tetrahydropyrimidin-1(2H)-yl)phenyl)sulfamoyl)-[1,1′-biphenyl]-3-carboxamide], the “awakening time (awakening prolonging effect)” value is listed as “no significant difference in the awakening time”.

The EC50 is the concentration giving half of the maximal effect.
